Data taken from BindingDB's records for doi:10.1016/j.bmcl.2018.06.027 (Chinese Academy of Science, 2018).
pEC50: −log10 of the molar value.

Assay: Inhibition of HIV1 3B protease infected in human MT4 cells assessed as protection from virus induced cytopathogenicity measured after 5 days post infection by MTT assay

pEC50 | SMILES
6.77 | CC(C)[C@H](NC(=O)N(C)Cc1c[se]c(-c2ccccc2)n1)C(=O)N[C@@H](Cc1ccccc1)C[C@H](O)[C@H](Cc1ccccc1)NC(=O)OCc1cncs1
6.26 | CC(C)c1nc(CN(C)C(=O)N[C@H](C(=O)N[C@@H](Cc2ccccc2)C[C@H](O)[C@H](Cc2ccccc2)NC(=O)OCc2cncs2)C(C)C)c[se]1
